Measured values taken from article PMC8523698, “Preclinical characterization of an intravenous coronavirus 3CL protease inhibitor for the potential treatment of COVID19” (Nature Communications, 2021).
“And” between values parts separate entries of the source, which are not always exact repeats. Identical values can stand only once.

What was measured:
MDR1/P-gp = MDR1/P-gp (Homo sapiens, UniProt P08183); experiment: Transporter inhibition using membrane vesicles; conditions: for % PGP Uptake Activity: uptake of N-methyl quinidine by MDR1, single replicates
[1] = Rat pharmacokinetic study; conditions: for AUC(0-inf): AUCinf; for Vd: Vdss
CYP2C9 = CYP2C9 (Homo sapiens, UniProt P11712); experiment: Reversible CYP inhibition in human liver microsomes
[2] = Secondary/off-target pharmacology panel (Eurofins Cerep); conditions: assessed at 100 µM
[3] = In vitro micronucleus formation; type: cell-based
[4] = Monkey pharmacokinetic study
[5] = male, Wistar-Hannover, rat, plasma, iv, 2 mg/kg, Mean, PF-00835231 active dosed 2mg/kg intravenous
[6] = male, Wistar-Hannover, rat, plasma, iv, 2 mg/kg, PF-00835231 active dosed 2mg/kg intravenous, individual rats
[7] = rat, PF-00835231 active dosed 2mg/kg intravenous, individual rats, 2 mg/kg

Chain of MDR1/P-gp (P08183 whole entry): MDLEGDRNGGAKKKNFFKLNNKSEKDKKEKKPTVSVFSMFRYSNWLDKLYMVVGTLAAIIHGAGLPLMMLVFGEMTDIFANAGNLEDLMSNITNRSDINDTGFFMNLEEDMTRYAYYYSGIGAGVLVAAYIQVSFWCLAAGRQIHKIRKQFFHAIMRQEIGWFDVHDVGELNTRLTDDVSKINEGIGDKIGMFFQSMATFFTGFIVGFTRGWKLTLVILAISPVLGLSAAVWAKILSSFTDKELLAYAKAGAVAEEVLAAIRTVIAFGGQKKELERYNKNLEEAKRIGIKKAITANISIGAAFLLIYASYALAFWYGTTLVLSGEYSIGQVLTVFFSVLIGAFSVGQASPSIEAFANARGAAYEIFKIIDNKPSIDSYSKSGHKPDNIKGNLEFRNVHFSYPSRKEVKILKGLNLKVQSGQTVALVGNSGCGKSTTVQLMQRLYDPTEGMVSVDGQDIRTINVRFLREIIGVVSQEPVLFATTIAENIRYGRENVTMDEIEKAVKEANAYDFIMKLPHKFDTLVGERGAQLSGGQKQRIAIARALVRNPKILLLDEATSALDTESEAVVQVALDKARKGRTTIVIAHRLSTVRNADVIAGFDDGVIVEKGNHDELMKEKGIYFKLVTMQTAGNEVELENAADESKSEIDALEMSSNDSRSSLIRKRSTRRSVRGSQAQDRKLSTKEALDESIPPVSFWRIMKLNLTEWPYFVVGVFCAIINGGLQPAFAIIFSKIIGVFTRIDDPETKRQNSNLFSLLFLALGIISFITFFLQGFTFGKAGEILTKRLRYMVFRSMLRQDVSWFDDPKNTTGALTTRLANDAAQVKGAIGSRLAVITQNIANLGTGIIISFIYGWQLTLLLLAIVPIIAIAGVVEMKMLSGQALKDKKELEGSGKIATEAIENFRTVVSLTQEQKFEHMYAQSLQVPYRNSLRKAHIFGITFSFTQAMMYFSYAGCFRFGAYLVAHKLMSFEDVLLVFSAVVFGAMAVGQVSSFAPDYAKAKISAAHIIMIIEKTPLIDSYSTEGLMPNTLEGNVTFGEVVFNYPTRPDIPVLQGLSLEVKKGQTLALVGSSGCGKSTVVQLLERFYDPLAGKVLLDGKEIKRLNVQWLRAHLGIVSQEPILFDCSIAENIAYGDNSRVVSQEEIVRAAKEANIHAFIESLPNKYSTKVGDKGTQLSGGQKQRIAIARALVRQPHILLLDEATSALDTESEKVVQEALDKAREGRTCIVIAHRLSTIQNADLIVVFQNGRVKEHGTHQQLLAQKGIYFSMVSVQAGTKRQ
Chain of CYP2C9 (P11712 whole entry): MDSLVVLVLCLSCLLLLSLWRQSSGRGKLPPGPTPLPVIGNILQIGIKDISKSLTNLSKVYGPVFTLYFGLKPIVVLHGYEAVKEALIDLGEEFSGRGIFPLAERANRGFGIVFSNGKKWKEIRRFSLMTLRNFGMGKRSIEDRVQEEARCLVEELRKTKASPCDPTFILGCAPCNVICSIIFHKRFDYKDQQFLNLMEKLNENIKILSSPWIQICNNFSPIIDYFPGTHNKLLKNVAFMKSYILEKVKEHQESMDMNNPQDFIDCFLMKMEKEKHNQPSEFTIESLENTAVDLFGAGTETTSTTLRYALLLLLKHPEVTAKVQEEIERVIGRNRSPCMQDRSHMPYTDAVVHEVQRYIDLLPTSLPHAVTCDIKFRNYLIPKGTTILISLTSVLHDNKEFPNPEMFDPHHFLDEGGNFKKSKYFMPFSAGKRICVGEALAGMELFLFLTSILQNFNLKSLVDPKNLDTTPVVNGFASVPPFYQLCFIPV

SMILES: COc1cccc2[nH]c(C(=O)N[C@@H](CC(C)C)C(=O)N[C@@H](C[C@@H]3CCNC3=O)C(=O)CO)cc12 [PF-00835231]
- IC50 (MDR1/P-gp; IC50, N-methyl quinidine (0.2 µM)): 65.6 µM
- IC50 at […] (MDR1/P-gp; human, human MDR1 (P-gp) membrane vesicles, pH 7.4, probe N-methyl quinidine (0.2 µM), IC50, N-methyl quinidine (0.2 µM)): > 20 µM
- % PGP Uptake Activity (MDR1/P-gp; inhibitor concentration 0.0732 uM): 93.3145% and 114.451% and 106.12%
- % PGP Uptake Activity (MDR1/P-gp; inhibitor concentration 0.2930 uM): 78.5035% and 118.154% and 104.268%
- % PGP Uptake Activity (MDR1/P-gp; inhibitor concentration 1.1719 uM): 118.617% and 114.451%
- % PGP Uptake Activity (MDR1/P-gp; inhibitor concentration 4.6875 uM): 113.525% and 107.354% and 108.897%
- % PGP Uptake Activity (MDR1/P-gp; inhibitor concentration 18.7500 uM): 94.703% and 96.0915% and 89.1489%
- % PGP Uptake Activity (MDR1/P-gp; inhibitor concentration 300.0000 uM): 17.0995% and 14.0139% and 11.9619%
- Vdss ([1]; Rat, 2mg/kg intravenous, individual animals, 2 mg/kg): 1.02 L/kg and 0.58 L/kg
- AUC(0-inf) [1, 5]: 1250 ng·h/mL
- AUC(0-inf) [1, 6]: 1230 ng·h/mL
- clearance ([1]; male, Wistar-Hannover, rat, plasma, iv, 2 mg/kg, Clearance, Mean, PF-00835231 active dosed 2mg/kg intravenous): 27 mL/min/kg
- clearance ([1]; male, Wistar-Hannover, rat, plasma, iv, 2 mg/kg, Clearance, PF-00835231 active dosed 2mg/kg intravenous, individual rats): 27.1 mL/min/kg
- half-life ([1]; male, Wistar-Hannover, rat, plasma, iv, 2 mg/kg, Half life, Mean, PF-00835231 active dosed 2mg/kg intravenous): 43.1 min
- half-life ([1]; male, Wistar-Hannover, rat, plasma, iv, 2 mg/kg, Half life, PF-00835231 active dosed 2mg/kg intravenous, individual rats): 39.2 min
- half-life ([1]; male, Wistar-Hannover, rat, plasma, iv, 2 mg/kg, Terminal T1/2, rat IV, PF-07304814 […] (n=2, range), PF-00835231 2mg/kg (n=3, ± SD)): < 120 min
- Vd ([1]; male, Wistar-Hannover, rat, plasma, iv, 2 mg/kg, 2mg/kg intravenous, individual animals): 0.637 L/kg
- Vd ([1]; male, Wistar-Hannover, rat, plasma, iv, 2 mg/kg, Mean, 2mg/kg intravenous): 0.746 L/kg
- Vd [1, 5]: 0.746 L/kg
- Vd [1, 6]: 0.637 L/kg
- Vd ([1]; male, Wistar-Hannover, rat, plasma, iv, 2 mg/kg, Vdss input): 0.75 L/kg
- Vd ([1]; male, Wistar-Hannover, rat, plasma, iv, 2 mg/kg, rat IV, PF-07304814 […] (n=2, range), PF-00835231 2mg/kg (n=3, ± SD)): < 1.5 L/kg
- clearance ([1]; male, Wistar-Hannover, rat, plasma, iv, CL, rat IV, PF-07304814 […] (n=2, range), PF-00835231 2mg/kg (n=3, ± SD)): 27 ± 3.1 mL/min/kg
- half-life ([1]; male, Wistar-Hannover, rat, plasma, iv, Terminal T1/2, rat IV, PF-07304814 […] (n=2, range), PF-00835231 2mg/kg (n=3, ± SD)): 43.2 ± 7.2 min
- Vd ([1]; male, Wistar-Hannover, rat, plasma, iv, rat IV, PF-07304814 […] (n=2, range), PF-00835231 2mg/kg (n=3, ± SD)): 0.75 ± 0.24 L/kg
- bioavailability ([1]; male, Wistar-Hannover, rat, plasma, po, 2 mg/kg, Oral F%, rat, 2mg/kg PO vs IV): 1.4 ± 0.76%
- AUC(0-t) ([1]; male, Wistar-Hannover, rat, plasma, po, 5 mg/kg, AUCt, Mean, PF-00835231 5mg/kg PO dose): 12.8 ng·h/mL
- Urine Concn ([1]; rat urine 0-7 h, PF-00835231 active dosed 2mg/kg intravenous, individual rats, 2 mg/kg): 29200 ng/mL and 3180 ng/mL and 6320 ng/mL
- Urine Concn ([1]; rat urine 7-24 h, PF-00835231 active dosed 2mg/kg intravenous, individual rats, 2 mg/kg): 234 ng/mL and 85.6 ng/mL and 368 ng/mL
- AUCt ([1]; rat, PF-00835231 5mg/kg PO dose, individual rats, 5 mg/kg): 5.75 ng·h/mL and 18.5 ng·h/mL and 14.1 ng·h/mL
- AUCinf [1, 7]: 1110 ng·h/mL and 1400 ng·h/mL
- Half life [1, 7]: 51.4 min and 38.7 min
- Vdss [1, 7]: 1.02 L/kg and 0.58 L/kg
- clearance [1, 7]: 30 mL/min/kg and 23.8 mL/min/kg
- Oral F% ([1]; rat, 2mg/kg PO vs IV, 2 mg/kg): < 2%
- Percent of Control Activity (CYP2C9; CYP 2C9, 0.1 µM, 30-Minute Preincubation, 0.1 µM): 101.5% and 104.7%
- Percent of Control Activity (CYP2C9; CYP 2C9, 0.1 µM, Zero-Minute Preincubation, 0.1 µM): 113.8% and 92.8%
- Percent of Control Activity (CYP2C9; CYP 2C9, 0.214 µM, 30-Minute Preincubation, 0.214 µM): 103.1% and 106.7%
- Percent of Control Activity (CYP2C9; CYP 2C9, 0.214 µM, Zero-Minute Preincubation, 0.214 µM): 100.5% and 101.3%
- Percent of Control Activity (CYP2C9; CYP 2C9, 0.979 µM, 30-Minute Preincubation, 0.979 µM): 104.6% and 107.1%
- Percent of Control Activity (CYP2C9; CYP 2C9, 0.979 µM, Zero-Minute Preincubation, 0.979 µM): 107.0%
- Percent of Control Activity (CYP2C9; CYP 2C9, 2.09 µM, 30-Minute Preincubation, 2.09 µM): 102.9% and 114.0%
- Percent of Control Activity (CYP2C9; CYP 2C9, 2.09 µM, Zero-Minute Preincubation, 2.09 µM): 97.5%
- Percent of Control Activity (CYP2C9; CYP 2C9, 4.48 µM, 30-Minute Preincubation, 4.48 µM): 102.5% and 104.2%
- Percent of Control Activity (CYP2C9; CYP 2C9, 4.48 µM, Zero-Minute Preincubation, 4.48 µM): 95.3% and 94.9%
- Percent of Control Activity (CYP2C9; CYP 2C9, 20.5 µM, 30-Minute Preincubation, 20.5 µM): 101.2% and 96.3%
- Percent of Control Activity (CYP2C9; CYP 2C9, 20.5 µM, Zero-Minute Preincubation, 20.5 µM): 93.2%
- Percent of Control Activity (CYP2C9; CYP 2C9, 43.8 µM, 30-Minute Preincubation, 43.8 µM): 91.9% and 89.1%
- Percent of Control Activity (CYP2C9; CYP 2C9, 43.8 µM, Zero-Minute Preincubation, 43.8 µM): 85.3% and 88.3%
- Percent of Control Activity (CYP2C9; CYP 2C9, 93.5 µM, 30-Minute Preincubation, 93.5 µM): 76.4% and 76.0%
- Percent of Control Activity (CYP2C9; CYP 2C9, 93.5 µM, Zero-Minute Preincubation, 93.5 µM): 76.7% and 76.3%
- Percent of Control Activity (CYP2C9; CYP 2C9, 200 µM, 30-Minute Preincubation, 200 µM): 74.9% and 59.1%
- Percent of Control Activity (CYP2C9; CYP 2C9, 200 µM, Zero-Minute Preincubation, 200 µM): 71.9%
- IC50 (CYP2C9; human, microsomes, pH 7.4): > 200 µM
- activity at 0.1 µM (CYP2C9; human, microsomes, pH 7.4, Percent of Control Activity, CYP 2C9, 0.1 µM, 30-Minute Preincubation): 108%
- activity at 0.214 µM (CYP2C9; human, microsomes, pH 7.4, Percent of Control Activity, CYP 2C9, 0.214 µM, 30-Minute Preincubation): 102%
- activity at 0.214 µM (CYP2C9; human, microsomes, pH 7.4, Percent of Control Activity, CYP 2C9, 0.214 µM, Zero-Minute Preincubation): 102%
- activity at 0.979 µM (CYP2C9; human, microsomes, pH 7.4, Percent of Control Activity, CYP 2C9, 0.979 µM, 30-Minute Preincubation): 103%
- activity at 0.979 µM (CYP2C9; human, microsomes, pH 7.4, Percent of Control Activity, CYP 2C9, 0.979 µM, Zero-Minute Preincubation): 99.1%
- activity at 2.09 µM (CYP2C9; human, microsomes, pH 7.4, Percent of Control Activity, CYP 2C9, 2.09 µM, 30-Minute Preincubation): 99.5%
- activity at 2.09 µM (CYP2C9; human, microsomes, pH 7.4, Percent of Control Activity, CYP 2C9, 2.09 µM, Zero-Minute Preincubation): 110%
- activity at 4.48 µM (CYP2C9; human, microsomes, pH 7.4, Percent of Control Activity, CYP 2C9, 4.48 µM, 30-Minute Preincubation): 102%
- activity at 4.48 µM (CYP2C9; human, microsomes, pH 7.4, Percent of Control Activity, CYP 2C9, 4.48 µM, Zero-Minute Preincubation): 98.5%
- activity at 20.5 µM (CYP2C9; human, microsomes, pH 7.4, Percent of Control Activity, CYP 2C9, 20.5 µM, 30-Minute Preincubation): 96.7%
- activity at 20.5 µM (CYP2C9; human, microsomes, pH 7.4, Percent of Control Activity, CYP 2C9, 20.5 µM, Zero-Minute Preincubation): 104%
- activity at 43.8 µM (CYP2C9; human, microsomes, pH 7.4, Percent of Control Activity, CYP 2C9, 43.8 µM, 30-Minute Preincubation): 101%
- activity at 43.8 µM (CYP2C9; human, microsomes, pH 7.4, Percent of Control Activity, CYP 2C9, 43.8 µM, Zero-Minute Preincubation): 85.2%
- activity at 93.5 µM (CYP2C9; human, microsomes, pH 7.4, Percent of Control Activity, CYP 2C9, 93.5 µM, 30-Minute Preincubation): 92%
- activity at 93.5 µM (CYP2C9; human, microsomes, pH 7.4, Percent of Control Activity, CYP 2C9, 93.5 µM, Zero-Minute Preincubation): 92.6%
- activity at 200 µM (CYP2C9; human, microsomes, pH 7.4, Percent of Control Activity, CYP 2C9, 200 µM, 30-Minute Preincubation): 77.1%
- activity at 200 µM (CYP2C9; human, microsomes, pH 7.4, Percent of Control Activity, CYP 2C9, 200 µM, Zero-Minute Preincubation): 74.3%
- secondary (off-target) pharmacology [2]: minimal potential for secondary (off-target) pharmacology
- micronuclei formation [3]: did not induce micronuclei formation
- Total Concn, Mean ([4]; Monkey, 1mg/kg intravenous, Time 0.083): 1225 ng/mL
- Total Concn ([4]; Monkey, 1mg/kg intravenous, Time 0.083, individual animals): 1220 ng/mL
- Total Concn ([4]; Monkey, 1mg/kg intravenous, Time 0.083, individual animals, 1 mg/kg): 1230 ng/mL
- Total Concn, Mean ([4]; Monkey, 1mg/kg intravenous, Time 0.25): 365 ng/mL
- Total Concn ([4]; Monkey, 1mg/kg intravenous, Time 0.25, individual animals): 288 ng/mL
- Total Concn ([4]; Monkey, 1mg/kg intravenous, Time 0.25, individual animals, 1 mg/kg): 442 ng/mL
- Total Concn, Mean ([4]; Monkey, 1mg/kg intravenous, Time 0.5): 183 ng/mL
- Total Concn ([4]; Monkey, 1mg/kg intravenous, Time 0.5, individual animals): 154 ng/mL
- Total Concn ([4]; Monkey, 1mg/kg intravenous, Time 0.5, individual animals, 1 mg/kg): 212 ng/mL
- Total Concn, Mean ([4]; Monkey, 1mg/kg intravenous, Time 1): 107 ng/mL
- Total Concn ([4]; Monkey, 1mg/kg intravenous, Time 1, individual animals, 1 mg/kg): 89.9 ng/mL and 124 ng/mL
- Total Concn, Mean ([4]; Monkey, 1mg/kg intravenous, Time 2): 46 ng/mL
- Total Concn ([4]; Monkey, 1mg/kg intravenous, Time 2, individual animals, 1 mg/kg): 45.5 ng/mL and 47 ng/mL
- Total Concn, Mean ([4]; Monkey, 1mg/kg intravenous, Time 4): 13 ng/mL
- Total Concn ([4]; Monkey, 1mg/kg intravenous, Time 4, individual animals, 1 mg/kg): 12.2 ng/mL and 14 ng/mL
- Total Concn, Mean ([4]; Monkey, 1mg/kg intravenous, Time 7): 2.6 ng/mL
- Total Concn ([4]; Monkey, 1mg/kg intravenous, Time 7, individual animals, 1 mg/kg): 2.87 ng/mL and 2.25 ng/mL
- Vdss ([4]; Monkey, 1mg/kg intravenous, individual animals, 1 mg/kg): 1.51 L/kg
- AUC(0-inf) ([4]; male, Cynomolgus, cynomolgus monkey, plasma, iv, 1 mg/kg, AUCinf, Mean, monkey, PF-00835231 active dosed 1mg/kg intravenous (crossover)): 583 ng·h/mL
